In patent publication US7989451B2, “Tricyclic 1,2,4-triazine oxides and compositions for therapeutic use in cancer treatments” (Auckland Uniservices Limited, priority 2005, dated 2011) one finds melting point, IC50 and HCR data, which are given here for 16 compounds.

Like-named read-outs stand apart in the source and are kept apart here.

Series [1] concerns human cervical carcinoma SiHa. Put plainly: Proliferation assay (IC50) under aerobic and hypoxic conditions, SiHa. The format is cell-based. As to conditions: for IC50: Homo sapiens, 4 h drug exposure, sulforhodamine B; for HCR: hypoxic cytotoxicity ratio = IC50 aerobic/IC50 hypoxic. The essentials: (§1)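 HT29 (1100) and SiHa (1500) cells in αMEM with 17 mM glucose and 100 μM 2′-dCyd, exposed 4 h at 37 °C to 3-fold dilutions under 20% O2 or anoxia (<0.001% O2). Regrowth 5 (oxic) or 6 (anoxic) days; IC50 by sulforhodamine B. HCR = IC50 aerobic/IC50 hypoxic.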

The subject of series [2] is human colon carcinoma HT29. Put plainly: Proliferation assay (IC50) under aerobic and hypoxic conditions, HT29. The format is cell-based. To be noted: for IC50: Homo sapiens, 4 h drug exposure, sulforhodamine B; for HCR: hypoxic cytotoxicity ratio = IC50 aerobic/IC50 hypoxic. An outline of the steps: as §1
Setting [3] is: hypoxic (anaerobic chamber, <0.001% O2), then 6 days growth, read-out: IC50 (μM) hypoxic.
The mark [4] stands for this setting: oxic (20% O2), then 5 days growth, read-out: IC50 (μM) oxic.
Where [5] appears, read: HT-29, hypoxic (anaerobic chamber, <0.001% O2), then 6 days growth, read-out: IC50 (μM) hypoxic.
The mark [6] stands for this setting: HT-29, oxic (20% O2), then 5 days growth, read-out: IC50 (μM) oxic.

The compound `CCc1n[n+]([O-])c2cc3c(cc2[n+]1[O-])CC(CO)C3` (stereo not drawn) [Compound 136, (3-Ethyl-1,4-dioxido-7,8-dihydro-6H-indeno[5,6-e][1,2,4]triazin-7-yl)methanol] registered a melting point of 157 to 158 °C. Also, in series [1] (setting [3]), the IC50 was determined as 6.5 ± 0.2 µM. Further, in series [1] (setting [4]), the IC50 was 314 ± 60 µM. In series [1], the HCR stood at 48 ± 8. In series [2] (setting [5]), the IC50 was found to be 17.1 µM. Further, the IC50 in series [2] (setting [6]) turned out to be 774 ± 8 µM. Also, in series [2], the HCR is listed as 45.
`[O-][n+]1nc(CCCN2CCOCC2)[n+]([O-])c2cc3c(cc21)CC(CO)C3` (stereo not drawn) [Compound 141, {3-[3-(4-Morpholinyl)propyl]-1,4-dioxido-7,8-dihydro-6H-indeno[5,6-e][1,2,4]triazin-7-yl}methanol]: the melting point lay in the range of 112 to 114 °C. The IC50 in series [1] (setting [3]) was found to be 1.8 ± 0.2 µM. For the same compound, the IC50 in series [1] (setting [4]) stood at 377 µM. The HCR in series [1] came out at 206. The IC50 in series [2] (setting [5]) was 2.4 ± 0.1 µM. Moreover, the IC50 in series [2] (setting [6]) was 294 ± 34 µM. The HCR in series [2] is reported as 121 ± 14.
The compound `CCc1n[n+]([O-])c2cc3c(cc2[n+]1[O-])CC(CN1CCOCC1)C3` (stereo not drawn) [Compound 144, 3-Ethyl-7-(4-morpholinylmethyl)-7,8-dihydro-6H-indeno[5,6-e][1,2,4]triazine 1,4-Dioxide] returned a melting point of 164 to 165 °C. Besides, the IC50 in series [1] (setting [3]) is 2.4 ± 0.1 µM. In addition, in series [1] (setting [4]), the IC50 is 147 ± 37 µM. Besides, the HCR in series [1] is reported as 62 ± 19. Besides, the IC50 in series [2] (setting [5]) was 4.8 ± 1.3 µM. Moreover, in series [2] (setting [6]), the IC50 was determined as 154 ± 51 µM. The HCR in series [2] turned out to be 31 ± 2.
`CCc1n[n+]([O-])c2cc3c(cc2[n+]1[O-])CC(CCO)C3` (stereo not drawn) [Compound 162, 2(3-Ethyl-1,4-dioxido-7,8-dihydro-6H-indeno[5,6-e][1,2,4]triazin-7-yl)ethanol] gave a melting point of 152 to 155 °C. Also, the IC50 in series [1] (setting [3]) turned out to be 2.9 ± 0.4 µM. The IC50 in series [1] (setting [4]) is 283 µM. Moreover, the HCR in series [1] is given as 86. For the same compound, in series [2] (setting [5]), the IC50 turned out to be 7.7 ± 1.2 µM. Further, the IC50 in series [2] (setting [6]) is 717 ± 320 µM. The HCR in series [2] stood at 102 ± 57.
Regarding `CN(C)CCNc1n[n+]([O-])c2cc3c(cc2[n+]1[O-])CCCCC3` [Compound 189, N^1-(1,4-Dioxido-7,8,9,10-tetrahydro-6H-cyclohepta[g][1,2,4]benzotriazin-3-yl)-N^2,N^2-dimethyl-1,2-ethanediamine], the melting point lay within 131 to 133 °C. Besides, in series [1] (setting [3]), the IC50 came out at 1.2 ± 0.1 µM. Also, in series [1] (setting [4]), the IC50 is 99 ± 32 µM. Further, the HCR in series [1] came to 88 ± 32. Further, the IC50 in series [2] (setting [5]) came to 5.2 ± 0.9 µM. Moreover, the IC50 in series [2] (setting [6]) was found to be 250 ± 119 µM. Moreover, the HCR in series [2] came to 54 ± 32.
Regarding `CN(C)CCNc1n[n+]([O-])c2cc3c(cc2[n+]1[O-])CCO3` [Compound 198, N^1-(1,4-Dioxido-6,7-dihydrofuro[3,2-g][1,2,4]benzotriazin-3-yl)-N^2,N^2-dimethyl-1,2-ethanediamine], the melting point lay within 149 to 151 °C. In series [1] (setting [3]), the IC50 worked out at 0.3 ± 0.02 µM. For the same compound, in series [1] (setting [4]), the IC50 came out at 36 ± 10 µM. In addition, the HCR in series [1] is listed as 87 ± 9. The IC50 in series [2] (setting [5]) came to 2.4 ± 0.1 µM. In addition, the IC50 in series [2] (setting [6]) worked out at 61 ± 6 µM. In addition, in series [2], the HCR is reported as 23 ± 0.2.
Turning to `[O-][n+]1nc(NCCCN2CCOCC2)[n+]([O-])c2cc3c(cc21)OCC3` [Compound 200, N-[3-(4-Morpholinyl)propyl]-6,7-dihydrofuro[3,2-g][1,2,4]benzotriazin-3-amine 1,4-Dioxide], the melting point lay in the range of 145 to 148 °C. Besides, the IC50 in series [1] (setting [3]) was found to be 3.4 ± 0.8 µM. Moreover, the IC50 in series [1] (setting [4]) worked out at 90 ± 24 µM. For the same compound, the HCR in series [1] is 28 ± 6. In addition, the IC50 in series [2] (setting [5]) stood at 22 ± 4.2 µM. In series [2] (setting [6]), the IC50 is 177 ± 80 µM. Further, the HCR in series [2] amounted to 8 ± 3.
For `Nc1n[n+]([O-])c2cc3c(cc2[n+]1[O-])OCC3` [Compound 205, 7,8-Dihydrofuro[2,3-g][1,2,4]benzotriazin-3-amine 1,4-Dioxide], the melting point was > 300 °C (dec.). Besides, in series [1] (setting [3]), the IC50 was found to be 23 µM. Besides, the IC50 in series [1] (setting [4]) is greater than 500 µM. Moreover, the IC50 in series [2] (setting [5]) was 117 µM. The IC50 in series [2] (setting [6]) is 495 µM. The HCR in series [2] is reported as 4.
`CN(C)CCNc1n[n+]([O-])c2cc3c(cc2[n+]1[O-])OCC3` [Compound 208, N^1-(1,4-Dioxido-7,8-dihydrofuro[2,3-g][1,2,4]benzotriazin-3-yl)-N^2,N^2-dimethyl-1,2-ethanediamine] registered a melting point of 186 to 189 °C. The IC50 in series [1] (setting [3]) was 1.9 ± 0.2 µM. The IC50 in series [1] (setting [4]) was found to be 176 ± 70 µM. For the same compound, in series [1], the HCR is listed as 128 ± 3. In addition, the IC50 in series [2] (setting [5]) was found to be 5.2 ± 0.3 µM. In series [2] (setting [6]), the IC50 was 258 ± 207 µM. In series [2], the HCR was determined as 46 ± 36.
In turn, `CCN(CC)CCNc1n[n+]([O-])c2cc3c(cc2[n+]1[O-])OCC3` [Compound 210, N^1-(1,4-Dioxido-7,8-dihydrofuro[2,3-g][1,2,4]benzotriazin-3-yl)-N^2,N^2-diethyl-1,2-ethanediamine] returned a melting point of 187 to 190 °C. Further, the IC50 in series [1] (setting [3]) turned out to be 3.4 ± 0.7 µM. Also, the IC50 in series [1] (setting [4]) turned out to be 376 ± 10 µM. In series [1], the HCR turned out to be 122 ± 25. In addition, the IC50 in series [2] (setting [5]) amounted to 9.6 ± 3.6 µM. The IC50 in series [2] (setting [6]) was determined as 708 ± 178 µM. In addition, the HCR in series [2] is 113 ± 53.
As for `[O-][n+]1nc(NCCCN2CCOCC2)[n+]([O-])c2cc3c(cc21)CCO3` [Compound 212, N-[3-(4-Morpholinyl)propyl]-7,8-dihydrofuro[2,3-g][1,2,4]benzotriazin-3-amine 1,4-Dioxide], the melting point is 186 to 189 °C. Moreover, the IC50 in series [1] (setting [3]) was 29.4 ± 4.2 µM. Besides, in series [1] (setting [4]), the IC50 was 355 ± 240 µM. Further, the HCR in series [1] stood at 14 ± 10. In addition, the IC50 in series [2] (setting [5]) was 48.6 ± 12.2 µM. Further, the IC50 in series [2] (setting [6]) turned out to be 225 ± 136 µM. Also, the HCR in series [2] came out at 6 ± 4.
In the case of `[O-][n+]1nc(CCCN2CCOCC2)[n+]([O-])c2cc3c(cc21)CCO3` [Compound 216, 3-[3-(4-Morpholinyl)propyl]-7,8-dihydrofuro[2,3-g][1,2,4]benzotriazine 1,4-Dioxide], the melting point was 150 to 154 °C. The IC50 in series [1] (setting [3]) came out at 5.05 ± 0.01 µM. Moreover, the IC50 in series [1] (setting [4]) worked out at 216 µM. The HCR in series [1] was found to be 43. In addition, the IC50 in series [2] (setting [5]) was found to be 8.9 ± 0.4 µM. For the same compound, the IC50 in series [2] (setting [6]) was determined as 218 ± 54 µM. In addition, the HCR in series [2] is listed as 25 ± 6.
`CN(C)CCNc1n[n+]([O-])c2cc3c(cc2[n+]1[O-])OCO3` [Compound 224, N^1-(1,4-Dioxido[1,3]dioxolo[4,5-g][1,2,4]benzotriazin-3-yl)-N^2,N^2-dimethyl-1,2-ethanediamine] returned a melting point of 175 to 179 °C. In series [1] (setting [3]), the IC50 stood at 4.7 ± 3.3 µM. In addition, in series [1] (setting [4]), the IC50 amounted to 304 ± 254 µM. Also, the HCR in series [1] was 53 ± 17. The IC50 in series [2] (setting [5]) was found to be 13 ± 7 µM. The IC50 in series [2] (setting [6]) is 471 ± 443 µM. Also, in series [2], the HCR was determined as 26 ± 21.
The compound `CN(C)CCNc1n[n+]([O-])c2cc3c(cc2[n+]1[O-])CCCO3` [Compound 242, N^1-(1,4-Dioxido-7,8-dihydro-6H-chromeno[6,7-e][1,2,4]triazin-3-yl)-N^2,N^2-dimethyl-1,2-ethanediamine] had a melting point of 152 to 154 °C. Further, the IC50 in series [1] (setting [3]) stood at 0.31 µM. Besides, in series [1] (setting [4]), the IC50 worked out at 25 ± 6 µM. The HCR in series [1] came out at 60. Besides, the IC50 in series [2] (setting [5]) was 1.5 µM. For the same compound, the IC50 in series [2] (setting [6]) stood at 38 ± 10 µM. Also, the HCR in series [2] stood at 19.
The compound `CCNc1n[n+]([O-])c2cc3c(cc2[n+]1[O-])CN(C)CC3` [Compound 259, N-Ethyl-7-methyl-6,7,8,9-tetrahydro[1,2,4]triazino[6,5-g]isoquinolin-3-amine 1,4-Dioxide] returned a melting point of 120 to 124 °C. Also, in series [1] (setting [3]), the IC50 is 1.1 ± 0.5 µM. Also, in series [1] (setting [4]), the IC50 is 111 ± 51 µM. For the same compound, the HCR in series [1] is reported as 100 ± 2. Further, the IC50 in series [2] (setting [5]) was determined as 2.6 ± 0.03 µM. Besides, the IC50 in series [2] (setting [6]) is 154 ± 19 µM. Besides, the HCR in series [2] is given as 59 ± 7.
In turn, `CCc1n[n+]([O-])c2cc3c(cc2[n+]1[O-])CN(C)CC3` [Compound 261, 3-Ethyl-7-methyl-6,7,8,9-tetrahydro[1,2,4]triazino[6,5-g]isoquinoline 1,4-Dioxide] yielded a melting point of 124 to 128 °C. In addition, the IC50 in series [1] (setting [3]) turned out to be 3.1 ± 0.1 µM. Moreover, the IC50 in series [1] (setting [4]) is 18 ± 1 µM. In series [1], the HCR is on record as 6 ± 0.2. Further, the IC50 in series [2] (setting [5]) was found to be 13 ± 1 µM. Moreover, the IC50 in series [2] (setting [6]) turned out to be 24 ± 2 µM. Also, the HCR in series [2] is on record as 2 ± 0.2.

Usually melting point stands for the temperature, or range, at which the solid turns liquid. Usually IC50 stands for the midpoint of a concentration-inhibition curve.
